Experimental data as given in patent US10011589B2, “Treatments for gastrointestinal conditions” (BOARD OF REGENTS, THE UNIVERSITY OF TEXAS SYSTEM, priority 2014, dated 2018).
In brackets after ≈: the same amount, converted by molar mass. Where two headings read alike, the source gives them in different places. Each block holds one compound with its values, some of them ahead of it.

What was measured:
[1] = tested on: C. difficile strains R20291 and BAA-1875; assay: MIC testing against C. difficile strains R20291 and BAA-1875; format: cell-based, Clostridium difficile; settings: for MIC: Clostridioides difficile, BAA1875, C. difficile R20291 and BAA-1875 (FIG. 8), 24 h, 37° C., anaerobic; for fold less active than 1971 (MIC): relative to parent 1971
Method: (§1) The synthesized compounds were initially tested against four virulent C. difficile strains: CD1803 (toxinotype III, 95 NAP1), CD1875 (toxinotype V, NAP7), R20291 (ribotype 027—from A. Sonenshein, Tufts University, USA), and BAA-1875 (ribotype 078, from American Type Culture Collection-ATCC). The activities (i.e. Minimum Inhibitory Concentrations-MICs) of test compounds were determined in 24 or 96 well microtitre plates using bacterial inocula of 10^6 cfu/mL and were defined as the lowest concentration of test compound that inhibited visible growth after 24 h of incubation at 37° C. in an A35 anaerobic chamber (Don-Whitley).

[2] = tested on: C. difficile strain ATCC 43596; assay: MIC against infecting strain ATCC 43596; format: cell-based, Clostridium difficile
[3] = tested on: C. difficile strain BAA-1803; assay: MIC against C. difficile strain BAA-1803; format: cell-based, Clostridium difficile; settings: 3-position substituents
Method: as §1

Caco-2 monolayer = assay: Caco-2 cell permeability assay; format: in vitro ADME
Method: The permeability co-efficient (Papp A-B) of the compounds were calculated and the ability of compounds to move from the apical to the basolateral side of Caco-2 monolayer is shown in FIG. 16.

[4] = Cecal content concentrations in hamsters; format: in vivo; settings: for mean peak cecal concentration: hamster cecal contents at 1, 3 and 5 h after oral dosing 100 mg/kg, LLOQ 10 ng/mL
Method: (§2) After dosing animals (n=3 per time point) as above, animals were humanely sacrificed at time points and their cecal contents collected and stored at −20° C. For plasma samples, 25 μL of plasma was placed in 384-well analytical plate and quenched by the addition of 50 μL of acetonitrile containing 4 mg/L warfarin as an internal standard. The plate was sealed, shaken at 600 rpm for 10 min, and then was centrifuged at 4000 rpm for 20 min. 15 μL of the supernatant was transferred to a new analytical 96-well plate and mixed with 100 μL of MilliQ water. The samples were analyzed by injecting 5 μL onto a Waters UPLC/SQD LC-MS/MS system. The cecal samples were processed by adding 100 μL of acetonitrile containing 4 mg/L of warfarin (internal standard) to the microfuge tubes containing cecal matter (˜50 mg). The suspension was vortexed for 10 sec, sonicated for 1 min and then centrifuged at 10,000 rpm for 10 min. Aliquots (50 μL) of the collected supernatants were then transferred to a 384-well plate and analyzed by high resolution mass spectroscopy using Waters XEVO QTOF LCMS.
To evaluate this in vivo, we determined the concentrations of the three compounds in the cecal contents recovered from hamsters at 1, 3 and 5 h time points following oral dosing (FIG. 19).

[5] = In vitro microsomal stability; format: in vitro ADME; settings: microsomes; data not shown; read-out: microsomal stability t½ (converted)
Description: Thus, the very low concentration of the hybrids in the plasma might likely be due to a combination of poor intestinal absorption and hepatic clearance.

[6] = Pharmacokinetic study in hamsters, plasma; format: in vivo; settings: male, Syrian, po, hamster, 100 mg/kg in PEG-400:water (85:15); for AUC: read-out: total exposure (AUC) in plasma
Method: as §2, with “Pharmacokinetic studies were assessed in male Syrian hamsters (˜100 g), from Charles-River, with each carrying a pre-implanted jugular vein cannula. Hamsters (n=5 per group) were fasted overnight and for the duration of the experiment (7 h). After collecting pre-dose blood samples (200 μL), animals were dosed with 100 mg/kg of compounds formulated in PEG-400:water (85:15). At various time points blood samples were collected into heparinized coated tubes that were centrifuged at 3000 rpm for 10 min to yield plasma, which was stored at −20° C. After” for “After”

C. difficile = assay: MIC of nitro and des-nitro analogs (mode of action); format: cell-based, Clostridium difficile; settings: Clostridioides difficile; des-nitro analogs (FIG. 11)
[7] = tested on: C. difficile strain ATCC 43596; assay: Hamster model of CDI (efficacy); format: in vivo, Golden Syrian hamsters
Method: Golden Syrian hamsters (˜100 g) from Charles River Laboratories were separately housed in sterile cages and maintained on sterile food and water. On day −1, animals were subcutaneously injected with clindamycin phosphate solution (50 mg/kg, from Hospira). After 20 h (day 0), hamsters were infected by oral gavage with 10^6 cfu of the C. difficile strain ATCC 43596 grown in Sporulation Medium and washed once with pre-reduced PBS; 15. […] After 5 days of treatment, surviving hamsters were monitored for up to 30 days for signs of disease as described by Anton et al. All moribund animals were euthanized, as well as those that survived the post-treatment monitoring period (30 days); ceca were recovered from all animals. All animal experiments were approved by The Institutional Animal Care and Use Committee of The University of Texas at Arlington.

[8] = tested on: Clostridium difficile infection; settings: severe CDI; cited from earlier work
[9] = literature; cited from earlier work
[10] = Clostridioides difficile, ATCC43596, infecting strain ATCC 43596, read-out: MIC

MIC [1]: 1 to 2 µg/mL (≈ 2.85 to 5.71 µM)
fold less active than metronidazole (MIC) ([1]; relative to metronidazole): 4 to 8 fold
MIC [2, 10]: 0.5 µg/mL (≈ 1.43 µM)
activity / MIC in words (FIG. 10) [3]: No difference in MIC
Structure (SMILES): CC(=O)C1=C(O)C(CC(C)C)N(CCn2c([N+](=O)[O-])cnc2C)C1=O (centres unmarked) [Compound 1971, 3-acetyl-4-hydroxy-5-isobutyl-1-(2-(2-methyl-5-nitro-1H-imidazol-1-yl)ethyl)-1H-pyrrol-2(5H)-one]

fold less active than 1971 (MIC) [1]: 24 fold
Structure (SMILES): Cc1cnc([N+](=O)[O-])n1CCNC(=O)C1=C(O)C(CC(C)C)NC1=O (centres unmarked) [Compound 2122, 4-hydroxy-5-isobutyl-N-(2-(5-methyl-2-nitro-1H-imidazol-1-yl)ethyl)-2-oxo-2,5-dihydro-1H-pyrrole-3-carboxamide]

fold less active than 1971 (MIC) [1]: 10 fold
Structure (SMILES): Cc1ncc([N+](=O)[O-])n1CC(=O)C1=C(O)C(CC(C)C)NC1=O (centres unmarked) [Compound 2123, 4-hydroxy-5-isobutyl-3-(2-(2-methyl-5-nitro-1H-imidazol-1-yl)acetyl)-1H-pyrrol-2(5H)-one]

fold less active than 1971 (MIC) [1]: > 64 fold
Structure (SMILES): CC(=O)C1=C(O)CN(CCn2c([N+](=O)[O-])cnc2C)C1=O [Compound 2153, 3-acetyl-4-hydroxy-1-(2-(2-methyl-5-nitro-1H-imidazol-1-yl)ethyl)-1H-pyrrol-2(5H)-one]

Caco-2 permeation in words (Caco-2 monolayer; Caco-2): slightly more permeable than vancomycin
permeability co-efficient (Papp A-B) (Caco-2 monolayer; Caco-2): 284.5±34.7 to 307±35.6
Structure (SMILES): CC(=O)C1=C(O)C(Cc2ccccc2)N(CCn2c([N+](=O)[O-])cnc2C)C1=O (centres unmarked) [Compound 2154, 3-acetyl-5-benzyl-4-hydroxy-1-(2-(2-methyl-5-nitro-1H-imidazol-1-yl)ethyl)-1H-pyrrol-2(5H)-one]

Caco-2 permeation in words (Caco-2 monolayer; Caco-2): slightly more permeable than vancomycin
permeability co-efficient (Papp A-B) (Caco-2 monolayer; Caco-2): 284.5±34.7 to 307±35.6
Structure (SMILES): CCC(C)C1C(O)=C(C(C)=O)C(=O)N1CCn1c([N+](=O)[O-])cnc1C (centres unmarked) [Compound 2155, 3-acetyl-5-(sec-butyl)-4-hydroxy-1-(2-(2-methyl-5-nitro-1H-imidazol-1-yl)ethyl)-1H-pyrrol-2(5H)-one]

Caco-2 permeation in words (Caco-2 monolayer; Caco-2): slightly more permeable than vancomycin
permeability co-efficient (Papp A-B) (Caco-2 monolayer; Caco-2): 284.5±34.7 to 307±35.6
Structure (SMILES): CC(=O)C1=C(O)C(CSCc2ccccc2)N(CCn2c([N+](=O)[O-])cnc2C)C1=O (centres unmarked) [Compound 2313, 3-acetyl-5-((benzylthio)methyl)-4-hydroxy-1-(2-(2-methyl-5-nitro-1H-imidazol-1-yl)ethyl)-1H-pyrrol-2(5H)-one]

activity / MIC in words (FIG. 10) [3]: loss of activity
Structure (SMILES): Cc1ncc([N+](=O)[O-])n1CCN1C(=O)C=C(O)C1CC(C)C.O=C(O)C(F)(F)F (centres unmarked) [Compound 2314, 4-hydroxy-5-isobutyl-1-(2-(2-methyl-5-nitro-1H-imidazol-1-yl)ethyl)-1H-pyrrol-2(5H)-one, TFA]

Caco-2 permeation in words (Caco-2 monolayer; Caco-2): slightly more permeable than vancomycin
permeability co-efficient (Papp A-B) (Caco-2 monolayer; Caco-2): 284.5±34.7 to 307±35.6
activity / MIC in words (FIG. 10) [3]: No difference in MIC
Structure (SMILES): Cc1ncc([N+](=O)[O-])n1CCN1C(=O)C(C(=O)c2ccc(F)cc2)=C(O)[C@H]1CC(C)C [Compound 2315, (R)-3-(4-fluorobenzoyl)-4-hydroxy-5-isobutyl-1-(2-(2-methyl-5-nitro-1H-imidazol-1-yl)ethyl)-1H-pyrrol-2(5H)-one]

mean peak cecal concentration [4]: 2,678 ng/mL
MIC [2, 10]: 0.25 µg/mL (≈ 0.575 µM)
half-life [5]: 18 min
Cmax [6]: 211 ng/mL
Tmax [6]: 15 min
AUC [6]: 386 ng·h/mL
Structure (SMILES): CC(=O)C1=C(O)C(Cc2cccc3ccccc23)N(CCn2c([N+](=O)[O-])cnc2C)C1=O (centres unmarked) [Compound 2344, 3-acetyl-4-hydroxy-1-(2-(2-methyl-5-nitro-1H-imidazol-1-yl)ethyl)-5-(naphthalen-1-ylmethyl)-1H-pyrrol-2(5H)-one]

fold difference in cecal concentration of 2344 and 2345 ([4]; 2345 versus 2344): 12 fold
mean peak cecal concentration [4]: 32,649 ng/mL
MIC [2, 10]: 0.25 µg/mL (≈ 0.543 µM)
half-life [5]: 79.8 min
Cmax [6]: 616 ng/mL
Tmax [6]: 15 min
AUC [6]: 355 ng·h/mL
Structure (SMILES): CC(=O)C1=C(O)C(Cc2ccc(-c3ccccc3)cc2)N(CCn2c([N+](=O)[O-])cnc2C)C1=O (centres unmarked) [Compound 2345, 5-([1,1′-biphenyl]-4-ylmethyl)-3-acetyl-4-hydroxy-1-(2-(2-methyl-5-nitro-1H-imidazol-1-yl)ethyl)-1H-pyrrol-2(5H)-one]

MIC ([2]; infecting strain ATCC 43596): 0.25 µg/mL (≈ 0.571 µM)
Structure (SMILES): CC(=O)C1=C(O)C(Cc2cn(C)c3ccccc23)N(CCn2c([N+](=O)[O-])cnc2C)C1=O (centres unmarked) [Compound 2490]

MIC (C. difficile): > 128 µg/mL
Structure (SMILES): CC(=O)C1=C(O)C(Cc2cccc3ccccc23)N(CCn2ccnc2C)C1=O (centres unmarked) [Compound 2699, 3-acetyl-4-hydroxy-1-(2-(2-methyl-1H-imidazol-1-yl)ethyl)-5-(naphthalen-1-ylmethyl)-1H-pyrrol-2(5H)-one]

MIC (C. difficile): > 128 µg/mL
Structure (SMILES): CC(=O)C1=C(O)C(Cc2ccc(-c3ccccc3)cc2)N(CCn2ccnc2C)C1=O (centres unmarked) [Compound 2700, 5-([1,1′-biphenyl]-4-ylmethyl)-3-acetyl-4-hydroxy-1-(2-(2-methyl-1H-imidazol-1-yl)ethyl)-1H-pyrrol-2(5H)-one]

Structure (SMILES): Cc1ncc([N+](=O)[O-])n1CCO [metronidazole, reference compound]
survival, maximum days post-infection ([7]; 50 mg/kg once daily, days 1 to 5, oral): ≤ 10 days
MIC [1]: 0.25 µg/mL (≈ 1.46 µM)
patients relapsing following therapy [8]: more than 25%
Caco-2 permeation in words (Caco-2 monolayer; apical to basolateral): highly permeable
MIC ([2]; Clostridioides difficile, ATCC43596): 0.125 µg/mL (≈ 0.73 µM)
Cmax [6]: 51000 ng/mL
Tmax [6]: 60 min
AUC [6]: 135000 ng·h/mL

Structure (SMILES): CN[C@H](CC(C)C)C(=O)N[C@H]1C(=O)N[C@@H](CC(N)=O)C(=O)N[C@H]2C(=O)N[C@H]3C(=O)N[C@H](C(=O)N[C@H](C(=O)O)c4cc(O)cc(O)c4-c4cc3ccc4O)[C@H](O)c3ccc(c(Cl)c3)Oc3cc2cc(c3O[C@@H]2O[C@H](CO)[C@@H](O)[C@H](O)[C@H]2O[C@H]2C[C@](C)(N)[C@H](O)[C@H](C)O2)Oc2ccc(cc2Cl)[C@H]1O [vancomycin]
complete survival, days post-treatment ([7]; vancomycin 20 mg/kg, hybrids 50 mg/kg): more than 20 days
absorbed from the gastrointestinal tract [9]: < 10%
Caco-2 permeation in words (Caco-2 monolayer; apical to basolateral): poor permeation properties
